# Results as given in patent US11911719B2, “Devices and methods for the integrated filtration, drying, and mechanical processing of active pharmaceutical ingredients” (Massachusetts Institute of Technology, priority 2019, dated 2024).
# Structures can show the parent of a compound that is named as a salt.
# Tests used:
# [1] = Particle size by laser diffraction (Mastersizer 2000, Scirocco 2000 dry dispersion); format: physicochemical
# Procedure: (§1) Particle size analysis by laser diffraction was conducted in a Malvern Mastersizer 2000 using a Scirocco 2000 dry dispersion unit.
# Characterization and understanding of the particle and bulk properties of the API, the excipients, and blends were important in the development and manufacturing of pharmaceutical formulations and finished products. Size, shape, bulk density and flow properties of CIPRO, excipients (specifically fillers), and blends were characterized to assist in formulation development. The particle size of CIPRO and excipients were measured in the Scirocco 2000, dry powder dispersion unit of Mastersizer 2000 particle size analyzer (Malvern Instruments Ltd.). CIPRO or excipient was placed in the enclosed vibratory tray of Scirocco 2000. The Scirocco 2000 uses compressed air to transport and suspend the particles of the sample while they pass through the air cell. The vibratory tray of Scirocco 2000 was vibrated to feed the powder at the 50% feed rate setting. The powder was dispersed through the air cell at an air pressure of 2 bar. The Mastersizer 2000 reported volume-weighted particle sizes. The median size of fumed silica CAB-O-SIL® M-5P is about 14 nm.
# [2] = Powder compressibility (FT4 Powder Rheometer); format: physicochemical
# Procedure: (§2) The bulk density was measured using the conditioned bulk density test, performed before any other test in the FT4. Powder flow property was measured using the shear cell test. The compressibility of the powders under investigation was also measured. Bulk density is an important parameter for determining the amount of powder that can fit in space such as blender, hopper of a tablet press or a tablet die. The shear test yields various powder flow measurements including a flow coefficient. The flow function coefficient (FFC) is used as an indicator of the flowability of a powder and is defined as the ratio of the major principle stress to the unconfined yield strength. The FFC was obtained using a normal stress of 3 kPa. FFC values can be separated into different regimes: FFC<1, not flowing; 1<FFC<2, very cohesive; 2<FFC<4, cohesive; 4<FFC<10, easy flowing, and FFC>10, free-flowing. Powder compressibility was also measured. Compressibility is not a direct measurement of flowability; however a free-flowing powder usually has a low compressibility value. A compressibility value greater than 30% indicates poor powder flow.
# [3] = Karl Fischer analysis of lattice water; format: physicochemical; settings: KF analysis of oven dried samples
# Procedure: as §1
# Furthermore, no significant loss of crystallinity can be observed from the baseline. The lattice water content can be quantified from KF analysis of the off-line oven dried samples collected at different times during the process. […] As expected, the cake contains approximately 19 wt % water at the start of the drying process, coming from the residual wash solvent that contains 20 vol % water (24 wt %), but diluted by the solid API. […] This value is in accordance with the observations from XRPD analysis, with the monohydrate salt of ciprofloxacin HCl having a 4.7 wt % stoichiometric water content. As the drying step progresses, the total water concentration in the cake decreases while the lattice water is maintained constant. With the USP specifications giving a target water content between 4.7 and 6.7 wt %, the obtained drug substance started meeting the specifications after 50 min of drying. This time coincides with the point at which the cake dry matter content was near 100%.
# [4] = after 140 min of drying, 50° C., 0.5 bar
# [5] = Shear cell test, flow function coefficient (FT4 Powder Rheometer); format: physicochemical
# Procedure: as §2
# [6] = processed CIPRO particles, Table 3
# [7] = processed CIPRO particles, Table 3, Hydrochloride Monohydrate
# [8] = Table 2 materials, volume-weighted, dry dispersion 2 bar
compound,measurement,setting,value
"O=C(O)c1cn(C2CC2)c2cc(N3CCNCC3)c(F)cc2c1=O [CIPRO (Commercial, un-processed), Ciprofloxacin Hydrochloride Monohydrate]",Particle size d10,[1]; [6],3.75 μm
same,Particle size d50,[1]; [6],12.49 μm
same,Particle size d90,[1]; [6],439.56 μm
same,Compressibility,[2]; [6],38.9%
"Cl.O.O=C(O)c1cn(C2CC2)c2cc(N3CCNCC3)c(F)cc2c1=O [CIPRO (US & Krups Grinder), Ciprofloxacin Hydrochloride Monohydrate]",Particle size d10,[1]; [7],1.93 μm
same,Particle size d50,[1]; [7],7.09 μm
same,Particle size d90,[1]; [7],65.36 μm
same,Compressibility,[2]; [7],38.8%
"Cl.O.O=C(O)c1cn(C2CC2)c2cc(N3CCNCC3)c(F)cc2c1=O [CIPRO (US & Morter-Pastle), Ciprofloxacin Hydrochloride Monohydrate]",Particle size d10,[1]; [7],3.01 μm
same,Particle size d50,[1]; [7],8.67 μm
same,Particle size d90,[1]; [7],24.02 μm
same,Compressibility,[2]; [7],43.6%
"Cl.O.O=C(O)c1cn(C2CC2)c2cc(N3CCNCC3)c(F)cc2c1=O [CIPRO (w/o US, Grinder designed at MIT), Ciprofloxacin Hydrochloride Monohydrate]",Particle size d10,[1]; [7],2.82 μm
same,Particle size d50,[1]; [7],14.45 μm
same,Particle size d90,[1]; [7],169.73 μm
"Cl.O.O=C(O)c1cn(C2CC2)c2cc(N3CCNCC3)c(F)cc2c1=O [CIPRO (w/o US, Krups Grinder), Ciprofloxacin Hydrochloride Monohydrate]",Particle size d10,[1]; [7],1.23 μm
same,Particle size d50,[1]; [7],3.88 μm
same,Particle size d90,[1]; [7],33.26 μm
same,Compressibility,[2]; [7],52.6%
same,Compressibility,"[2]; processed CIPRO particles, Table 3, listed as CIPRO (w/o use of a Krups Grinder), Hydrochloride Monohydrate",52.6%
"O=C(O)c1cn(C2CC2)c2cc(N3CCNCC3)c(F)cc2c1=O [Ciprofloxacin HCl (CIPRO), Ciprofloxacin Hydrochloride Monohydrate]",Lattice water content of the crystalline phase,[3],6.2 wt %
same,Crystal structure after drying (XRPD),[4],retained the original crystal structure
Magnesium stearate,Particle size d10,[1]; [8],2.76 μm
same,Particle size d50,[1]; [8],6.86 μm
same,Particle size d90,[1]; [8],15.10 μm
same,Compressibility,[2]; Table 2 materials,38.97%
same,FFC (Flow function coefficient),"[5]; Table 2 materials, normal stress of 3 kPa",5.18
same,Flowability by Schulze classification,[5]; based on FFC,flows easily
